Test results: patent EP1184367A1, “AMIDE DERIVATIVES” (Sumitomo Pharmaceuticals Company, Limited, priority 1999, dated 2000)
Like-named read-outs stand apart in the source and are kept apart here.

Test system: constant white light-induced retinal damage
Text: Male Wistar rats (7 weeks old, Charles River Japan Inc.) were purchased and maintained in cyclic light / dark environment (8:00-20:00 / light term) for one week, and then placed within the apparatus for constant white light exposure for two days. The constant white light exposure apparatus is a covered breeding box of 1020 mm in length, 425 mm in width, 520 mm in height, which is made of acryl boards and of which all inner side are covered with mirrors. Light was continuously irradiated all the day long (24 hours) using white fluorescent lamp attached to the ceiling of the apparatus. The average illuminance in the apparatus was 174.2 foot candle. After two days in the apparatus, the rats were moved to a darkroom and dark adapted for 1-4 hours. The rats were anesthetized with pentobarbital and placed in a stereotaxic frame. After topical mydriatica was given and electrodes were put on corneal surface, center of the forehead and the lower part of the lobe, the response in active potential of retina to the flash stimulation with fixed energy was determined from the recorded ERG (electroretinogram). The damage of retina was evaluated by the decrease in the amplitude of ERG a-wave which originated from retinal outer nuclear cells (photoreceptors). […]

SMILES | % recovery (Mean±S.E.M.) (rats, 100 mg/kg orally administered in 0.5 % methylcellulose, just before constant light exposure and at the same time on the next day, two days of exposure, ERG a-wave amplitude relative to normal control and MC groups, five rats in a group) | % recovery (Mean±S.E.M.) (rat, in vivo, po, 100 mg/kg)
CC(C)(COC(=O)CN)NC(=O)c1ccc(F)cc1F.O=S(=O)(O)c1ccccc1 [Example 4, N-(2-Glycyloxy-1,1-dimethylethyl)-2,4-difluorobenzamide benzenesulfonate] | 19.5 ± 3.3% | –
CC(C)(COC(=O)CCC(=O)O)NC(=O)c1ccc(F)cc1F [Example 3, N-(2-(3-Carboxypropionyloxy)-1,1-dimethylethyl)-2,4-difluorobenzamide] | – | 14.0 ± 3.1%
